{
  "source": "patent US11707448B2",
  "about": "“Combination therapies for the treatment of cancer” (Eisai R&D Management Co., Ltd., priority 2014, dated 2023)",
  "system": "PAN02 pancreatic tumors",
  "test": "PAN02 pancreatic tumor model, ER-886046 with gemcitabine and radiation",
  "type": "in vivo, mice",
  "details": "gemcitabine single 40 mg/kg + RT single 6 Gy on day 27; first study (FIG. 10)",
  "method": "FIG. 10. […] Antitumor activity of gemcitabine plus local radiation (RT) administered to PAN02 pancreatic tumors in C57BL/6 mice with or without ER-886046. Gemcitabine and RT dosing: a single 40 mg/kg dose of gemcitabine and a single 6 Gy dose of RT, was administered on day 27 post tumor cell injection. ER-8806046 was administered daily in an amount of 150 mg/kg from day 27 post tumor cell injection until the end of the study.\nFIG. 11A to FIG. 11B. Additional experiments with combination therapy of ER-886046 and anti-metabolite chemotherapy with radiation compared to anti-metabolite chemotherapy with radiation alone. Panel shown in FIG. 11A) Gemcitabine and RT dosing: a single 40 mg/kg dose of gemcitabine and a single 6 Gy dose of RT, was administered on day 19 post tumor cell injection. ER-8806046 was administered daily in an amount of 150 mg/kg from day 19 post tumor cell injection until the end of the study. Panel shown in FIG. 11B) Gemcitabine and RT dosing: a single 40 mg/kg dose of gemcitabine and a single 6 Gy dose of RT, was administered on day 12 post tumor cell injection. ER-8806046 was administered daily in an amount of 150 mg/kg from day 12 post tumor cell injection until the end of the study. Average tumor sizes of mouse pancreatic PAN02 tumor-bearing mice that received vehicles, ER-886046, gemcitabine (gem) plus radiation (RT), ER-886046 plus RT, or ER-886046 plus gemcitabine and RT at indicated dosages and schedules. A and B represent each independent study. N=8-10 per group. NS, not significant; *, p<0.05; **, p<0.01; ***, p<0.001; and ****, p<0.0001, two-way ANOVA test.\nAnimal studies; In vitro cultured cancer cells were harvested and suspended in 100 μl of cold HBSS buffer at cell concentrations of 1.0×10^6 cells/ml (CT-26 cells) or of 1.0×10^7 cells/ml (PAN02 cells) and subcutaneously (sc) injected into the mice using a 26 g syringe on day 0. At the dates as indicated in the figures, the mice were randomized based on the tumor size followed by treatments with local radiation alone, gemcitabine alone (intravenous administration), ER-886046 alone (oral administration), or combinations of these treatments. […] The tumor sizes were measured twice a week by a digital caliber (Mitutoyo Corp), and the volume was calculated using the formula (1×w^2)/2=mm^3, where 1 and w refer to the larger and smaller perpendicular dimensions collected at each measurement. Graphs of group tumor sizes (mean±SEM) versus time were plotted using software GraphPad Prism 6 (Lake Forest, Calif.). Two way ANOVA was used for statistical calculation among the groups. N=8-10 in each treatment group.",
  "note": "Structures can show the parent of a compound that is named as a salt.",
  "data": [
    {"smiles": "Nc1ccn([C@@H]2O[C@H](CO)[C@@H](O)C2(F)F)c(=O)n1", "note": "[gemcitabine, Gemcitabine hydrochloride, reference compound]", "values": [
      {"measurement": "tumor growth delay activity", "value": "weak but statistically significant tumor growth delay activity"}
    ]}
  ]
}
